Assays:
mammalian pols = experiment: DNA polymerase assays, all mammalian pols tested; assay type: biochemical; details: all mammalian pols tested (α, β, γ, δ, ε, η, ι, κ, λ); read-out: range of IC50 values for mammalian pols
Source text: (§1) Pol α was purified from calf thymus by immuno-affinity column chromatography as described by Tamai et al.. Recombinant rat pol β was purified from E. coli JMpβ5 as described by Date et al.. The human pol γ catalytic gene was cloned into pFastBac. Histidine-tagged enzyme was expressed using the BAC-TO-BAC HT Baculovirus Expression System according to the supplier's manual (LIFE TECHNOLOGIES, MD, USA) and purified using ProBoundresin (Invitrogen Japan, Tokyo, Japan). Human pols δ and ε were purified by the nuclear fractionation of human peripheral blood cancer cells (Molt-4) using the second subunit of pols δ and ε-conjugated affinity column chromatography, respectively. Recombinant human pols η and ι tagged with His6 at their C-terminal were expressed in SF9 insect cells using the baculovirus expression system, and were purified as described previously. A truncated form of pol κ (i.e., hDINB1DC) with 6 x His-tags attached at the C-terminal was overproduced using the BAC-to-BAC Baculovirus Expression System kit (GIBCO BRL, MD, USA) and purified as described previously. […]
(§2) For pols, poly(dA)/oligo(dT)12-18 (A/T = 2/1) and dTTP were used as the DNA template-primer and nucleotide (i.e., dNTP) substrate, respectively. […] Activity without the inhibitor was considered 100%, and the remaining activity at each concentration of the inhibitor was determined relative to this value. […]

[1] = biological target: Cherry salmon DNA polymerase δ (Oncorhynchus masou, UniProt Z9UCE0HTX2); experiment: DNA polymerase assay, fish pol δ; assay type: biochemical
HL-60 cells = experiment: HL-60 cancer cell growth, MTT assay; assay type: cell-based, human; details: 50 μM, 24 hr
Method: To investigate the effects of KA-A derivatives in cultured cells, we used a human cancer cell line, HL-60, human promyelocytic leukemia cells (IFO 050022), supplied by the Health Science Research Resources Bank (Osaka, Japan). The cells were routinely cultured in RPMI 1640 medium supplemented with 10% fetal bovine serum, 100 μg/mL streptomycin, 100 unit/mL penicillin, and 1.6 mg/mL NaHCO3. The cells were cultured at 37 °C in standard medium in a humidified atmosphere of 5% CO2-95% air. The rate of the cancer cell growth of the compound was investigated as follows: high concentrations (10 mM) of the compounds were dissolved in DMSO and stocked. Approximately 1 x 10^4 cells per well were inoculated in 96-well micro plates, and then the compound stock solution was diluted to various concentrations, and applied to each well. After incubation for 24 hr, the survival rate was determined by MTT (3-(4,5-dimethylthiazol-2-yl)-2,5-diphenyl tetrazolium bromide) assay.

T7 RNA polymerase = biological target: T1, T7 RNA polymerase (Escherichia phage T7, UniProt P00573); experiment: T7 RNA polymerase assay; assay type: biochemical
T1 construct: purchased Takara (Kyoto, Japan)
Source text: as §1
The primase activity of calf pol α, the activities of T7 RNA polymerase, T4 polynucleotide kinase and bovine DNase I were measured in standard assays according to the manufacturer's specifications as described by Tamiya-Koizumi et al., Nakayama et al., Soltis et al., and Lu and Sakaguchi, respectively.

Human DNA polymerase η = biological target: T2, Human DNA polymerase η (Homo sapiens, UniProt Q9Y253); experiment: DNA polymerase assay, human pol η; assay type: biochemical
T2 construct: His6 (C); made in house; host or cells: SF9 insect cells (baculovirus)
T2 sequence (Q9Y253 1-713): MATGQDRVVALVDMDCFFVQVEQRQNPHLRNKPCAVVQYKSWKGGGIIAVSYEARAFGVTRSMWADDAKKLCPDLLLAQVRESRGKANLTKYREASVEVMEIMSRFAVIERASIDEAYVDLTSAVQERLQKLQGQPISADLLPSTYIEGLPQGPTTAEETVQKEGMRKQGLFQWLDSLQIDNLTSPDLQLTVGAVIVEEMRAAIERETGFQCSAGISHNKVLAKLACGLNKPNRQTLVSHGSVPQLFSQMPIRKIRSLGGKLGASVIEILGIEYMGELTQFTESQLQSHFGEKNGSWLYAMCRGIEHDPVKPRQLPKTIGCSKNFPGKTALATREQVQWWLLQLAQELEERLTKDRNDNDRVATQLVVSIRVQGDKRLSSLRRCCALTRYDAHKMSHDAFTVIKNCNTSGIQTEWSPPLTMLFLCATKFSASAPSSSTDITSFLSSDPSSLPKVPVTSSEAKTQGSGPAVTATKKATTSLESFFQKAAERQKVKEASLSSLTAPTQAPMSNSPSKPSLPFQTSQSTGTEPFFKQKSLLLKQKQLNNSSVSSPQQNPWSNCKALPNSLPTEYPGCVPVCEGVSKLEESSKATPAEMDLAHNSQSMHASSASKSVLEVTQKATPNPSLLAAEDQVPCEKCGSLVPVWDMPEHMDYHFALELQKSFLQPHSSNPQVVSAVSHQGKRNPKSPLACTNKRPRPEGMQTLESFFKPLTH
Source text: as §1, §2

Sequence of Cherry salmon DNA polymerase δ (Z9UCE0HTX2 1-856): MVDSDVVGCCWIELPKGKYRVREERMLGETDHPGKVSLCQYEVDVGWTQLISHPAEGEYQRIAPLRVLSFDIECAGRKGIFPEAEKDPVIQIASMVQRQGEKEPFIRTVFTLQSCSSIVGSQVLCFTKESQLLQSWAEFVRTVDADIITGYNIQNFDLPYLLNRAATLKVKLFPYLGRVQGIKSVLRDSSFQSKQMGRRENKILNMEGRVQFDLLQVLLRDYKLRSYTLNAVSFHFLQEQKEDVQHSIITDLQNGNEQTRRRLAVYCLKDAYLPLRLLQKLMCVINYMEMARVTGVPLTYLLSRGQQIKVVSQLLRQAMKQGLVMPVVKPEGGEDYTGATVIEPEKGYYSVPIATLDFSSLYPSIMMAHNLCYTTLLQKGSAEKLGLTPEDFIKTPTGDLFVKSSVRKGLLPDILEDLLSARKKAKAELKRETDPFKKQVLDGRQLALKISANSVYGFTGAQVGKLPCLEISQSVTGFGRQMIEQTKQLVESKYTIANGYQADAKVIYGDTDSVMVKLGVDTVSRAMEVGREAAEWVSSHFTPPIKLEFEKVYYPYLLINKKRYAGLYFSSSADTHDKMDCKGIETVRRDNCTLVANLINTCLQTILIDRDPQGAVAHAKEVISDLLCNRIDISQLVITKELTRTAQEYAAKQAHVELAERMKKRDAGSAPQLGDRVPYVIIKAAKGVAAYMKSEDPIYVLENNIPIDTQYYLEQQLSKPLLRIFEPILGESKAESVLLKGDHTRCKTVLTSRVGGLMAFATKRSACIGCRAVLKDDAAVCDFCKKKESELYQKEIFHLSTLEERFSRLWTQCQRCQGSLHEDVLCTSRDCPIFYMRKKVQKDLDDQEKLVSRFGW
T1 sequence (P00573 whole entry): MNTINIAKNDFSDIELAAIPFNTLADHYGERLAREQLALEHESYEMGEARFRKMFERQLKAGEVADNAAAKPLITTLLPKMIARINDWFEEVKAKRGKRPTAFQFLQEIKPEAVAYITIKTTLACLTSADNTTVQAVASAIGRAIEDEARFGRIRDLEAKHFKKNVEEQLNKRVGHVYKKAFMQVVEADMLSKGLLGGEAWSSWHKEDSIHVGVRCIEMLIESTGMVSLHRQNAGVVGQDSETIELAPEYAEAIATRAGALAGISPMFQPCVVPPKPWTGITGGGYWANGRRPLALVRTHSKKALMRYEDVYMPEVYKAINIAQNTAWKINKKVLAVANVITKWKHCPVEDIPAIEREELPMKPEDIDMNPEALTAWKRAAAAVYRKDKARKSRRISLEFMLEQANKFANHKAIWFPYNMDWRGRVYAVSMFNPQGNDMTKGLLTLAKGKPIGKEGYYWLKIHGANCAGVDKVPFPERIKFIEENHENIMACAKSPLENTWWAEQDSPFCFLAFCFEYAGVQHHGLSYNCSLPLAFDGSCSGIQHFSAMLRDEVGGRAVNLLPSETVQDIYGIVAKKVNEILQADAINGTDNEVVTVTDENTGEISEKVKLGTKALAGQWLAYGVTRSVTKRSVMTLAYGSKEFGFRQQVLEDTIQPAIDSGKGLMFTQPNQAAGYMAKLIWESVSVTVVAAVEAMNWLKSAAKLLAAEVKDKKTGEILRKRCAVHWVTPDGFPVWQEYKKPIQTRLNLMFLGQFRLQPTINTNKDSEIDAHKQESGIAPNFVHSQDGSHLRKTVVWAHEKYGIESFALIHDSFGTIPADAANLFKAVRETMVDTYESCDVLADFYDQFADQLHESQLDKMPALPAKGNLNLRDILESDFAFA

For `CC1=CC[C@H]2C(C)(C)CCC[C@]2(C)[C@H]1CCCCCCCCCCCCCCCCC(=O)O` (relative stereo) [compound 11, (1S*,4aS*,8aS*)-17-(1,4,4a,5,6,7,8,8a-octahydro-2,5,5,8a-tetramethylnaphthalen-1-yl)heptadecanoic acid], the IC50 (mammalian pols) was 3.22 to 8.76 µM, the IC50 [1] was 4.3 ± 0.22 µM and the “Growth inhibitory effect on HL-60 cells, rank among compounds tested” value (HL-60 cells) was “strongest growth inhibitory effect”. The “Influence on T7 RNA polymerase activity” value (T7 RNA polymerase) was “not influenced” and the IC50 (Human DNA polymerase η) was 7.45 ± 0.37 µM.

Reference: publication PMC6253949, “The Inhibitory Action of Kohamaic Acid A Derivatives on Mammalian DNA Polymerase β” (Molecules, 2008)
